In ChEMBL document CHEMBL1275241, “Novel variants of the qnrB gene, qnrB22 and qnrB23, in Citrobacter werkmanii and Citrobacter freundii” (2010):
Converted amounts (≈) assume the structure as drawn.

How the values were obtained:
Format in all cases: functional
Citrobacter werkmanii = experiment: Antimicrobial activity against Citrobacter werkmanii PS012 expressing PMQR determinant qnrB22 gene by Etest
Escherichia coli [1] = experiment: Antimicrobial activity against […] Escherichia coli DH5alpha by Etest
Citrobacter freundii = experiment: Antimicrobial activity against Citrobacter freundii S008 expressing PMQR determinant qnrB23 gene by Etest
Escherichia coli [2] = experiment: Antimicrobial activity against azide-resistant Escherichia coli J53 by Etest
Escherichia coli [3] = experiment: Antimicrobial activity against azide-resistant Escherichia coli J53 TrcS008 harboring PMQR determinant qnrB23 by Etest
Escherichia coli [4] = experiment: Antimicrobial activity against […] Escherichia coli DH5alpha TrfS008 harboring PMQR determinant qnrB23 by Etest
Escherichia coli [5] = experiment: Antimicrobial activity against […] Escherichia coli DH5alpha TrfPS012 harboring PMQR determinant qnrB22 by Etest
Escherichia coli [6] = experiment: Antimicrobial activity against azide-resistant Escherichia coli J53 TrcPS012 harboring PMQR determinant qnrB22 by Etest

C[C@H]1COc2c(N3CCN(C)CC3)c(F)cc3c(=O)c(C(=O)O)cn1c23.C[C@H]1COc2c(N3CCN(C)CC3)c(F)cc3c(=O)c(C(=O)O)cn1c23.O [LEVOFLOXACIN]
MIC (Citrobacter werkmanii): 0.5 µg/mL
MIC (Escherichia coli [1]): < 0.002 µg/mL
MIC (Citrobacter freundii): 3 µg/mL
MIC (Escherichia coli [2]): 0.023 µg/mL
MIC (Escherichia coli [3]): 3 µg/mL
MIC (Escherichia coli [4]): 0.094 µg/mL
MIC (Escherichia coli [5]): 0.004 µg/mL

CC1COc2c(N3CCN(C)CC3)c(F)cc3c(=O)c(C(=O)O)cn1c23 (stereo not drawn) [OFLOXACIN]
MIC (Citrobacter werkmanii): 1 µg/mL (≈ 2.77 µM)
MIC (Escherichia coli [1]): 0.023 µg/mL (≈ 0.0636 µM)
MIC (Citrobacter freundii): 8 µg/mL (≈ 22.1 µM)
MIC (Escherichia coli [2]): 0.064 µg/mL (≈ 0.177 µM)
MIC (Escherichia coli [3]): 8 µg/mL (≈ 22.1 µM)
MIC (Escherichia coli [4]): 0.25 µg/mL (≈ 0.692 µM)
MIC (Escherichia coli [5]): 0.064 µg/mL (≈ 0.177 µM)

O=C(O)c1cn(C2CC2)c2cc(N3CCNCC3)c(F)cc2c1=O [CIPROFLOXACIN]
MIC (Citrobacter werkmanii): 0.25 µg/mL (≈ 0.754 µM)
MIC (Citrobacter freundii): 2 µg/mL (≈ 6.04 µM)
MIC (Escherichia coli [4]): 0.064 µg/mL (≈ 0.193 µM)

CCn1cc(C(=O)O)c(=O)c2cc(F)c(N3CCNCC3)cc21 [NORFLOXACIN]
MIC (Citrobacter werkmanii): 0.5 µg/mL (≈ 1.57 µM)
MIC (Escherichia coli [1]): 0.032 µg/mL (≈ 0.1 µM)
MIC (Citrobacter freundii): 8 µg/mL (≈ 25.1 µM)
MIC (Escherichia coli [2]): 0.064 µg/mL (≈ 0.2 µM)
MIC (Escherichia coli [3]): 8 µg/mL (≈ 25.1 µM)
MIC (Escherichia coli [6]): 0.25 µg/mL (≈ 0.783 µM)
MIC (Escherichia coli [4]): 0.25 µg/mL (≈ 0.783 µM)
MIC (Escherichia coli [5]): 0.064 µg/mL (≈ 0.2 µM)

CCn1cc(C(=O)O)c(=O)c2ccc(C)nc21 [NALIDIXIC ACID]
MIC (Citrobacter werkmanii): 32 µg/mL (≈ 138 µM)
MIC (Escherichia coli [1]): 2 µg/mL (≈ 8.61 µM)
MIC (Citrobacter freundii): > 256 µg/mL
MIC (Escherichia coli [2]): 3 µg/mL (≈ 12.9 µM)
MIC (Escherichia coli [3]): > 256 µg/mL
MIC (Escherichia coli [6]): 16 µg/mL (≈ 68.9 µM)
MIC (Escherichia coli [4]): 16 µg/mL (≈ 68.9 µM)
MIC (Escherichia coli [5]): 4 µg/mL (≈ 17.2 µM)
